Entries after “also recorded” stand apart in the source; their conditions may differ.
Key:
ASAL = molecular target: T1, ASAL (Allium sativum, UniProt P83886); assay type: binding; conditions: read-out: Dissociation constant (Kd)
T1 construct: gene LECASAL; native 25-kDa homodimer
T1 sequence (P83886 31-140): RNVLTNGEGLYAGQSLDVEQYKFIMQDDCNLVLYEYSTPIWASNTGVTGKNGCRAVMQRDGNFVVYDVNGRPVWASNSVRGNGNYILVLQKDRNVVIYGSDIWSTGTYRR

mASAL = molecular target: T2, mASAL (Allium sativum, UniProt P83886, G129D/INS129NSNN); experiment: biochemical
T2 construct: gene LECASAL
Description: Dissociation Constant (Kd) of mannose-bound complex using fluorescence spectroscopy
mASAL and ASAL were separately incubated at 25°C on a Hitachi F-7000 spectrofluorimeter using a Sigma cuvette (volume: 1 ml; pathlength: 1 cm). The solutions were titrated with 10 mM mannose in phosphate buffer (pH 7.2) by adding a small aliquot at a time. Following each addition, the solution was stirred using a magnetic stirrer for 1 min and the fluorescence emission spectrum was recorded between 300 and 400 nm using 295 nm as the excitation wavelength. The excitation and emission band passes were each 5 nm. […] The equation for single-site ligand binding measured through changes in the spectroscopic signal [20] is given by [drawing 1] (1) where ΔF represents the increase or decrease in fluorescence intensity at a given concentration of the ligand, K d is the dissociation constant, and A = K dΔ Fmax. We used equation (1) to calculate the dissociation constant (K d) for binding of mannose, glucose and NAG to mASAL and ASAL.

Lipaphis erysimi = experiment: Insect bioassay with artificial diet; assay type: in vivo; conditions: second instar nymphs, survival recorded for 72 h, Probit analysis
Description: Insect bioassays were conducted using an artificial diet [9]–[11]. Twenty second instar nymphs of Lipaphis erysimi were used in multiple sets. Polycarbonate petriplates (perforated for air passage at the bottom) were used as a bioassay cage. Nymphs were released into the plates, and the upper edges of the plates were covered with fully stretched parafilm. A modified synthetic diet mixture of 200 µl, supplemented with different concentrations of ASAL and mASAL (5, 10, 15, 20, 25 µg/ml), was dispensed on the stretched parafilm membrane. Another Parafilm membrane was stretched onto this in order to form a pouch. For control plates, 20-mM TrisCl (pH 7.4) was added to the artificial diet instead of experimental proteins. For another set of control experiments, aphids were fed with only 20 mM TrisCl (pH 7.4) without the artificial diet. Each set of experiments for each dose was repeated four times. Data regarding the numbers of nymphs surviving were recorded at 12-h intervals for 72 h. The LC50 values for the toxicity against mustard aphids were determined by Probit analysis ( Table 2 ).

rabbit erythrocytes = experiment: Hemagglutination assay; assay type: cell-based; conditions: 50 to 6.25 µg/ml, 2% rabbit erythrocytes, 1 hour at 37°C
Description: Blood was collected from the rabbit into a syringe pre-filled with 500-µl 0.9% NaCl solution and the blood was immediately transferred to a culture tube pre-filled with 0.9% saline. Subsequently, the erythrocyte solution was prepared by repeated washing with 0.9% saline and spun at 2500 g for 10 minutes at 4°C. After each cycle, the supernatant was carefully removed. […] The erythrocytes were resuspended in 0.9% saline as a 2% (3.5×10^8 cells/ml) cell suspension. Hemagglutination activity of the purified mASAL and /or ASAL was assayed in a 96-well microtiter U-plate according to a 2-fold serial dilution procedure (50, 25, 12.5, 6.25 µg/ml). The samples were diluted with PBS (137 mM NaCl, 2.7 mM KCl, 10 mM Na2HPO4, 1.8 mM KH2PO4; pH 7.4) at which point 50 µl of protein from each dilution was mixed with 50 µl of a 2% suspension of rabbit erythrocytes.

R. solani hyphae = experiment: Immunolocalization assay with anti-ASAL antibody; assay type: cell-based, Rhizoctonia solani; conditions: 4 µg protein, 40 hours at 25°C
R. solani = conditions: 4 µg protein, 40 hours at 25°C
F. oxysporum = conditions: 4 µg protein, 40 hours at 25°C
A. brassicicola = conditions: 4 µg protein, 40 hours at 25°C
[1] = Man9GlcNAc2Asn, at 25°C; cited from earlier work
[2] = molecular target: the molecule itself; experiment: SEC; Biosep-SEC-S-2000 column, 0.1 M sodium phosphate pH 6.8, 2 ml/min; native ASAL as control; data not shown

Molecule `OC[C@H]1OC(O)[C@H](O)[C@@H](O)[C@@H]1O` (stereo partly drawn) [D-glucose] has a Kd (ASAL) of 140 nM and a Kd (mASAL) of 160 nM.

`OC[C@H]1OC(O)[C@@H](O)[C@@H](O)[C@@H]1O` (stereo partly drawn) [Mannose, D-mannose] gave a Kd (ASAL) of 60 nM and a Kd (mASAL) of 120 nM.

In the case of `CC(=O)N[C@H]1C(O)O[C@H](CO)[C@@H](O)[C@@H]1O` (some centres unmarked) [NAG, N-acetyl glucosamine], the Kd (ASAL) is reported as 300 nM and the Kd (mASAL) is reported as 110 nM.

With Allium sativum leaf agglutinin [ASAL] the LC50 value (Lipaphis erysimi) was 20.7 µg/mL, the hemagglutination activity (rabbit erythrocytes) was “agglutinated cells form a carpet” and the “binding to fungal membrane (FITC green fluorescence)” value (R. solani hyphae) was “absence of any signal; also recorded: no signals were generated”. The “propidium iodide uptake (fluorescence, membrane permeabilization)” value (shortened to “propidium iodide uptake”) (R. solani) was “excluded propidium iodide”, the “propidium iodide uptake” value (F. oxysporum) was “excluded propidium iodide” and the “propidium iodide uptake” value (A. brassicicola) was “excluded propidium iodide”. The “binding affinity Ka” value [1] was 1.2e+06 M⁻¹.

B1: Allium sativum leaf agglutinin (natural protein)
chain: RNLLTNGEGLYAGQSLDVEQYKFIMQDDCNLVLYEYSTPIWASNTGVTGKNGCRAVMQRDGNFVVYDVNGRPVWASNSVRGNGNYILVLQKDRNVVIYGSDIWSTGT
In the case of B1, the “stoichiometry N” value [2] is reported as 2.

Source: paper PMC3072408 (PLoS ONE, 2011)
